In US20240315993A1, “ANTIPARASITIC COMPOUNDS” (Intervet Inc., priority 2021, published 2024):

How the values were obtained:
[1] = system: juvenile soft ticks (Ornithodoros moubata); experiment: Guinea pig - efficacy against argaside tick; format: in vivo; settings: for effective to control ticks: 5 mg/kg
Protocol: (§1) Guinea pigs were locally co-infested (using an infestation device on a shaved skin area) with juvenile soft ticks (Ornithodoros moubata) and bed bugs (Cimex lectularius) before the treatment day (Day 0) to provide a baseline-negative control value. Guinea pigs were treated orally (by gavage) or subcutaneously at a dose of 5 mg/kg bodyweight of a test compound in a formulation of 10% DMF/Emulsifier+90% Aqua ad injectabilia.
(§2) Repeated local infestations with both parasites were performed at different time points after treatment. Within approximately 45 min after each infestation ten engorged ticks and ten engorged bed bugs were • collected and the percentage of dead and damaged parasites per species were • assessed approximately 24 hours following collection. The efficacy was • calculated as % of inhibition ‘killed+damaged’ parasites in a treated group in comparison to the baseline-negative control (using a modified Schneider Orelli's formula).
(§3) Results: Activity of the test compounds at different evaluation time-points (≥80% inhibition were found active): […]

[2] = system: bed bugs (Cimex lectularius); experiment: Guinea pig - efficacy against bed bug; format: in vivo; settings: for effective to control bed bugs: 5 mg/kg
Protocol: as §1, §2, §3

[3] = 5 mg/kg subcutaneous, after 7 days
[4] = 5 mg/kg subcutaneous, after 10 days
[5] = 5 mg/kg subcutaneous, after 14 days
[6] = 5 mg/kg subcutaneous, after 17 days
[7] = at least until Day 10, both administration routes (oral, subcutaneous)
[8] = 5 mg/kg subcutaneous, after 21 days
[9] = 5 mg/kg subcutaneous, after 24 days
[10] = 5 mg/kg subcutaneous, after 28 days
[11] = 5 mg/kg subcutaneous, after 31 days
[12] = for at least one week, both administration routes
[13] = 5 mg/kg subcutaneous, after 35 days

O=C(Nc1ncc(F)cc1F)c1cc(NC(=O)C2C(c3cc(Cl)c(F)c(Cl)c3)C2(Cl)Cl)ccc1Cl (stereo not drawn) [Compound 469]
100%: effective to control ticks [1, 7] | effective to control bed bugs [2, 7]
activity: activity against tick nymphs (≥80% inhibition, killed+damaged) ([1]; 5 mg/kg oral, after 7 days) | activity against tick nymphs (≥80% inhibition, killed+damaged) ([1]; 5 mg/kg oral, after 10 days) | activity against tick nymphs (≥80% inhibition, killed+damaged) [1, 3] | activity against tick nymphs (≥80% inhibition, killed+damaged) [1, 4] | activity against tick nymphs (≥80% inhibition, killed+damaged) [1, 5] | activity against tick nymphs (≥80% inhibition, killed+damaged) [1, 6] | activity against bed bugs (≥80% inhibition, killed+damaged) ([2]; 5 mg/kg oral, after 7 days) | activity against bed bugs (≥80% inhibition, killed+damaged) ([2]; 5 mg/kg oral, after 10 days) | activity against bed bugs (≥80% inhibition, killed+damaged) [2, 3] | activity against bed bugs (≥80% inhibition, killed+damaged) [2, 4] | activity against bed bugs (≥80% inhibition, killed+damaged) [2, 5] | activity against bed bugs (≥80% inhibition, killed+damaged) [2, 6] | activity against bed bugs (≥80% inhibition, killed+damaged) [2, 8]
immediate activity: activity against tick nymphs (≥80% inhibition, killed+damaged) ([1]; 5 mg/kg oral, Day 0) | activity against tick nymphs (≥80% inhibition, killed+damaged) ([1]; 5 mg/kg subcutaneous, Day 0) | activity against bed bugs (≥80% inhibition, killed+damaged) ([2]; 5 mg/kg oral, Day 0) | activity against bed bugs (≥80% inhibition, killed+damaged) ([2]; 5 mg/kg subcutaneous, Day 0)

O=C(Nc1ncc(F)cc1F)c1cc(NC(=O)C2C(c3cc(Cl)c(Cl)c(Cl)c3)C2(Cl)Cl)ccc1Cl (stereo not drawn) [Compound 470]
immediate activity: activity against tick nymphs (≥80% inhibition, killed+damaged) ([1]; 5 mg/kg oral, Day 0) | activity against tick nymphs (≥80% inhibition, killed+damaged) ([1]; 5 mg/kg subcutaneous, Day 0) | activity against bed bugs (≥80% inhibition, killed+damaged) ([2]; 5 mg/kg oral, Day 0) | activity against bed bugs (≥80% inhibition, killed+damaged) ([2]; 5 mg/kg subcutaneous, Day 0)
activity: activity against tick nymphs (≥80% inhibition, killed+damaged) ([1]; 5 mg/kg oral, after 7 days) | activity against tick nymphs (≥80% inhibition, killed+damaged) ([1]; 5 mg/kg oral, after 10 days) | activity against tick nymphs (≥80% inhibition, killed+damaged) ([1]; 5 mg/kg oral, after 14 days) | activity against tick nymphs (≥80% inhibition, killed+damaged) ([1]; 5 mg/kg oral, after 17 days) | activity against tick nymphs (≥80% inhibition, killed+damaged) [1, 3] | activity against tick nymphs (≥80% inhibition, killed+damaged) [1, 4] | activity against tick nymphs (≥80% inhibition, killed+damaged) [1, 5] | activity against tick nymphs (≥80% inhibition, killed+damaged) [1, 6] | activity against tick nymphs (≥80% inhibition, killed+damaged) [1, 8] | activity against tick nymphs (≥80% inhibition, killed+damaged) [1, 9] | activity against tick nymphs (≥80% inhibition, killed+damaged) [1, 10] | activity against tick nymphs (≥80% inhibition, killed+damaged) [1, 11] | activity against bed bugs (≥80% inhibition, killed+damaged) ([2]; 5 mg/kg oral, after 7 days) | activity against bed bugs (≥80% inhibition, killed+damaged) ([2]; 5 mg/kg oral, after 10 days) | activity against bed bugs (≥80% inhibition, killed+damaged) ([2]; 5 mg/kg oral, after 14 days) | activity against bed bugs (≥80% inhibition, killed+damaged) ([2]; 5 mg/kg oral, after 17 days) | activity against bed bugs (≥80% inhibition, killed+damaged) ([2]; 5 mg/kg oral, after 21 days) | activity against bed bugs (≥80% inhibition, killed+damaged) ([2]; 5 mg/kg oral, after 24 days) | activity against bed bugs (≥80% inhibition, killed+damaged) ([2]; 5 mg/kg oral, after 28 days) | activity against bed bugs (≥80% inhibition, killed+damaged) [2, 3] | activity against bed bugs (≥80% inhibition, killed+damaged) [2, 4] | activity against bed bugs (≥80% inhibition, killed+damaged) [2, 5] | activity against bed bugs (≥80% inhibition, killed+damaged) [2, 6] | activity against bed bugs (≥80% inhibition, killed+damaged) [2, 8] | activity against bed bugs (≥80% inhibition, killed+damaged) [2, 9] | activity against bed bugs (≥80% inhibition, killed+damaged) [2, 10] | activity against bed bugs (≥80% inhibition, killed+damaged) [2, 11] | activity against bed bugs (≥80% inhibition, killed+damaged) [2, 13]
100%: effective to control ticks [1, 12] | effective to control bed bugs [2, 12]

O=C(Nc1ncc(F)cc1F)c1cc(NC(=O)C2C(c3cc(C(F)(F)F)cc(C(F)(F)F)c3)C2(Cl)Cl)ccc1Cl (stereo not drawn) [Compound 471]
immediate activity: activity against tick nymphs (≥80% inhibition, killed+damaged) ([1]; 5 mg/kg oral, Day 0) | activity against tick nymphs (≥80% inhibition, killed+damaged) ([1]; 5 mg/kg subcutaneous, Day 0) | activity against bed bugs (≥80% inhibition, killed+damaged) ([2]; 5 mg/kg oral, Day 0) | activity against bed bugs (≥80% inhibition, killed+damaged) ([2]; 5 mg/kg subcutaneous, Day 0)
activity: activity against tick nymphs (≥80% inhibition, killed+damaged) ([1]; 5 mg/kg oral, after 7 days) | activity against tick nymphs (≥80% inhibition, killed+damaged) ([1]; 5 mg/kg oral, after 10 days) | activity against tick nymphs (≥80% inhibition, killed+damaged) ([1]; 5 mg/kg oral, after 14 days) | activity against tick nymphs (≥80% inhibition, killed+damaged) ([1]; 5 mg/kg oral, after 17 days) | activity against tick nymphs (≥80% inhibition, killed+damaged) ([1]; 5 mg/kg oral, after 21 days) | activity against tick nymphs (≥80% inhibition, killed+damaged) ([1]; 5 mg/kg oral, after 24 days) | activity against tick nymphs (≥80% inhibition, killed+damaged) ([1]; 5 mg/kg oral, after 28 days) | activity against tick nymphs (≥80% inhibition, killed+damaged) ([1]; 5 mg/kg oral, after 31 days) | activity against tick nymphs (≥80% inhibition, killed+damaged) ([1]; 5 mg/kg oral, after 35 days) | activity against tick nymphs (≥80% inhibition, killed+damaged) [1, 3] | activity against tick nymphs (≥80% inhibition, killed+damaged) [1, 4] | activity against tick nymphs (≥80% inhibition, killed+damaged) [1, 5] | activity against tick nymphs (≥80% inhibition, killed+damaged) [1, 6] | activity against tick nymphs (≥80% inhibition, killed+damaged) [1, 8] | activity against tick nymphs (≥80% inhibition, killed+damaged) [1, 9] | activity against tick nymphs (≥80% inhibition, killed+damaged) [1, 10] | activity against tick nymphs (≥80% inhibition, killed+damaged) [1, 11] | activity against tick nymphs (≥80% inhibition, killed+damaged) [1, 13] | activity against bed bugs (≥80% inhibition, killed+damaged) ([2]; 5 mg/kg oral, after 7 days) | activity against bed bugs (≥80% inhibition, killed+damaged) ([2]; 5 mg/kg oral, after 10 days) | activity against bed bugs (≥80% inhibition, killed+damaged) ([2]; 5 mg/kg oral, after 14 days) | activity against bed bugs (≥80% inhibition, killed+damaged) ([2]; 5 mg/kg oral, after 17 days) | activity against bed bugs (≥80% inhibition, killed+damaged) ([2]; 5 mg/kg oral, after 21 days) | activity against bed bugs (≥80% inhibition, killed+damaged) ([2]; 5 mg/kg oral, after 24 days) | activity against bed bugs (≥80% inhibition, killed+damaged) ([2]; 5 mg/kg oral, after 28 days) | activity against bed bugs (≥80% inhibition, killed+damaged) ([2]; 5 mg/kg oral, after 31 days) | activity against bed bugs (≥80% inhibition, killed+damaged) ([2]; 5 mg/kg oral, after 35 days) | activity against bed bugs (≥80% inhibition, killed+damaged) [2, 3] | activity against bed bugs (≥80% inhibition, killed+damaged) [2, 4] | activity against bed bugs (≥80% inhibition, killed+damaged) [2, 5] | activity against bed bugs (≥80% inhibition, killed+damaged) [2, 6] | activity against bed bugs (≥80% inhibition, killed+damaged) [2, 8] | activity against bed bugs (≥80% inhibition, killed+damaged) [2, 9] | activity against bed bugs (≥80% inhibition, killed+damaged) [2, 10] | activity against bed bugs (≥80% inhibition, killed+damaged) [2, 11] | activity against bed bugs (≥80% inhibition, killed+damaged) [2, 13]
100%: effective to control ticks [1, 12] | effective to control bed bugs [2, 12]

O=C(Nc1ccc(F)cc1F)c1cc(NC(=O)C2C(c3cc(C(F)(F)F)cc(C(F)(F)F)c3)C2(Cl)Cl)ccc1Cl (stereo not drawn) [Compound 472]
immediate activity: activity against tick nymphs (≥80% inhibition, killed+damaged) ([1]; 5 mg/kg oral, Day 0) | activity against tick nymphs (≥80% inhibition, killed+damaged) ([1]; 5 mg/kg subcutaneous, Day 0) | activity against bed bugs (≥80% inhibition, killed+damaged) ([2]; 5 mg/kg oral, Day 0) | activity against bed bugs (≥80% inhibition, killed+damaged) ([2]; 5 mg/kg subcutaneous, Day 0)
